Data: publication PMC6754432, “Radiochemical examination of transthyretin (TTR) brain penetration assisted by iododiflunisal, a TTR tetramer stabilizer and a new candidate drug for AD” (Scientific Reports, 2019)

What was measured:
[1] = target: T1, TTR (Homo sapiens, UniProt P02766); assay: Displacement of bound [131I]IDIF from TTR-[131I]IDIF complex by non-labeled IDIF; type: binding; details: concentrations over 50 μM of IDIF, TTR complex 0.11 μM, overnight 4 °C
T1 construct: made in house
Method: Likewise, the preparation of [^131I]TTR-IDIF was carried out under adequate conditions to ensure that all the [^131I]TTR was stabilized with IDIF. This is extremely important because the separation of [^131I]TTR from [^131I]TTR-IDIF is unfeasible using chromatographic techniques. […] It was observed that a concentration of IDIF = 50 µM displaced > 99% of bound [^131I]IDIF.
First, the TTR/IDIF relative amount to achieve complete formation of the complex was determined. With that aim, six 100 μL aliquots of the [^131I]IDIF-TTR complex prepared as described above were incubated overnight (T = 4 °C) with different amounts of non-radioactive IDIF in 100 μL TNE buffer (final concentrations of IDIF = 0.88, 2.63, 8.76, 17.5, 52.5 and 175 μM, respectively; final concentration of TTR as TTR-[^131I]IDIF complex = 0.11 μM). After incubation, the samples were eluted through illustra^TM NAP-5 columns (GE Healthcare, USA) and radioactivity corresponding to the collected fractions of free [^131I]IDIF and TTR-[^131I]IDIF complex were compared to determine the proportion of [^131I]IDIF free and bound to TTR. For concentrations over 50 μM of IDIF, the displacement was > 97%.

[2] = Ex vivo biodistribution by dissection and gamma counting after intravenous administration; type: in vivo; details: i.v., mice
Method: The biodistribution of [^131I]TTR after intravenous administration in wild type mice was first investigated. With that aim, animals (n = 3 per time point) were administered with the radiotracer and sacrificed by exsanguination at pre-defined time points. Major organs were harvested together with blood and urine and the amount of radioactivity was determined by gamma counting. (Fig. 2, red bars).
Animals (n = 3 per compound and time point) were anesthetized with isoflurane 5% in pure oxygen and a solution containing [^131I]TTR, [^131I]IDIF, [^131I]TTR-IDIF complex or TTR-[^131I]IDIF complex (0.9 ± 0.4 MBq/120 μl) was injected through one of the lateral tail veins. Animals were recovered from anaesthesia and at pre-determined time points (t = 5, and 15 min and 1, 6 and 24 h), animals were sacrificed by perfusion using saline solution and kidneys, spleen, liver, small intestine, and brain were quickly removed and rinsed with water. The amount of activity in each organ was measured in an automatic gamma counter (2470 Wizard, PerkinElmer). Urine and blood samples were obtained just before perfusion. Part of the blood was processed to separate the plasma, which was also counted in the gamma counter.
For dissection and gamma counting experiments to assess biodistribution, values obtained for different compounds at each time point and organ were compared using t-student test, comparison of two independent means, using the GraphPad Prism software (version 7.03).

Row | Compound | displacement of [131I]IDIF [1] | percentage of injected dose per gram of blood ([2]; blood, t = 5 min, n = 3) | maximum value in brain ([2]; brain, 1 h after administration) | accumulation in kidneys ([2]; kidneys, t = 5 min) | accumulation in liver ([2]; liver, t = 5 min) | accumulation in small intestine (peak) ([2]; small intestine, peak at t = 1–6 h)
1 | O=C(O)c1cc(-c2ccc(F)cc2F)cc(I)c1O [IDIF, iododiflunisal] | > 97% |  |  |  |  | 
2 | O=C(O)c1cc(-c2ccc(F)cc2F)cc([131I])c1O [[^131I]IDIF, [^131I]iododiflunisal] |  | 23.3 ± 7.6 %ID/g | 0.05 %ID/g | 14.9 ± 3.0 % ID/g | 20.0 ± 5.5 % ID/g | ca. 15 % ID/g
